Columns and labels:
Format in all cases: biochemical
PAD2 = target: T1, PAD2 (Homo sapiens, UniProt Q9Y2J8); assay: Inactivation kinetics, PAD2; conditions: for kinact/KI: a: single kobs determined, b: from a linear fit, other footnotes: from kinact and KI; for Fold PAD2 Selectivity: kinact/KI relative to least inhibited isozyme (1.0); for Ki / kinact: PAD2, table footnote
T1 construct: made in house
Outline: (§1)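 PAD1, 2 or 4 (2.0 μM) or PAD3 (5.0 μM) preincubated at 37 °C with varying inhibitor in 50 mM HEPES, 10 mM CaCl2, 2 mM DTT, pH 7.6. Timed aliquots assayed 15 min with 10 mM BAEE (BAA for PAD3); citrulline quantified by COLDER.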

PAD1 = target: T2, PAD1 (Homo sapiens, UniProt Q9ULC6); assay: Inactivation kinetics, PAD1; conditions: for kinact/KI: a: single kobs determined, b: from a linear fit; for Fold PAD1 Selectivity: kinact/KI relative to least inhibited isozyme (1.0)
T2 construct: made in house
T2 sequence (Q9ULC6 1-663): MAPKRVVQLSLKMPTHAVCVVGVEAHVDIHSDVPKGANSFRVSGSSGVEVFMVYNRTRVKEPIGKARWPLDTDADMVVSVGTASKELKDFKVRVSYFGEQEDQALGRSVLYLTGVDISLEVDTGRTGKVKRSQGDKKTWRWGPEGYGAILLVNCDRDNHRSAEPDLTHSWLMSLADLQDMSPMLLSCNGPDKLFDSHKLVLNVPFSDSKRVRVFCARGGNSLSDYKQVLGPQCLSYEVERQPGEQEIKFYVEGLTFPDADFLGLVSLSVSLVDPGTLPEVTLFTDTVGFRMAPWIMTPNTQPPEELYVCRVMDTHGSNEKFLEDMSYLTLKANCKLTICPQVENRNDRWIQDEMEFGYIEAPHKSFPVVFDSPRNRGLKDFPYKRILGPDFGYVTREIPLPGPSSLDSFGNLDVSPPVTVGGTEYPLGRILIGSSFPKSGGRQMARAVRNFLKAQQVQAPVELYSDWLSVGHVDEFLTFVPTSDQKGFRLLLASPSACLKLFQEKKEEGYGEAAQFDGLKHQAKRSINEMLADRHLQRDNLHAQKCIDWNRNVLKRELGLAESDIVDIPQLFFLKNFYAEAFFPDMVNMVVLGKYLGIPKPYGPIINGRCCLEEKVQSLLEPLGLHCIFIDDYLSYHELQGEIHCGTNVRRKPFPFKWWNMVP
Outline: as §1

PAD3 = target: T3, PAD3 (Homo sapiens, UniProt Q9ULW8); assay: Inactivation kinetics, PAD3; conditions: for kinact/KI: a: single kobs determined; for Fold PAD3 Selectivity: kinact/KI relative to least inhibited isozyme (1.0)
T3 construct: made in house
T3 sequence (Q9ULW8 1-664): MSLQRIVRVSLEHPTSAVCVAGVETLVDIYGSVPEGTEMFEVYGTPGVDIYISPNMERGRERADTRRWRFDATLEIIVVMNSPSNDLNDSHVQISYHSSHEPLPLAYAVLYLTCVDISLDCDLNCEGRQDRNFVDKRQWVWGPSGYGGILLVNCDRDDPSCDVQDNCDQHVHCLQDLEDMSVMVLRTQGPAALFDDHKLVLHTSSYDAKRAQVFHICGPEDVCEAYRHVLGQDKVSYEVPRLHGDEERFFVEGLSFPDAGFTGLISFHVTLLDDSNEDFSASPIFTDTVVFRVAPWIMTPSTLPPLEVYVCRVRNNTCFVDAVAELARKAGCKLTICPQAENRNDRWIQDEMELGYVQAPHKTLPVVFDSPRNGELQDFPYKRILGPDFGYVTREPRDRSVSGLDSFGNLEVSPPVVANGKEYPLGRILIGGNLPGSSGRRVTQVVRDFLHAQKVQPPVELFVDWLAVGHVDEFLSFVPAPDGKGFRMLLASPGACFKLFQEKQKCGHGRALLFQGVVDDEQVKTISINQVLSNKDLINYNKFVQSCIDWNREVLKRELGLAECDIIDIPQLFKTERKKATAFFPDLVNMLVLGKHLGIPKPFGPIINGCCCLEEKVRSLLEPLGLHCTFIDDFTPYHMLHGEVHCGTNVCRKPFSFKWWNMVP
Outline: as §1

PAD4 = target: T4, PAD4 (Homo sapiens, UniProt Q9UM07); assay: Inactivation kinetics, PAD4; conditions: for kinact/KI: a: single kobs determined, b: from a linear fit; for Fold PAD4 Selectivity: kinact/KI relative to least inhibited isozyme (1.0)
T4 construct: made in house
T4 sequence (Q9UM07 whole entry): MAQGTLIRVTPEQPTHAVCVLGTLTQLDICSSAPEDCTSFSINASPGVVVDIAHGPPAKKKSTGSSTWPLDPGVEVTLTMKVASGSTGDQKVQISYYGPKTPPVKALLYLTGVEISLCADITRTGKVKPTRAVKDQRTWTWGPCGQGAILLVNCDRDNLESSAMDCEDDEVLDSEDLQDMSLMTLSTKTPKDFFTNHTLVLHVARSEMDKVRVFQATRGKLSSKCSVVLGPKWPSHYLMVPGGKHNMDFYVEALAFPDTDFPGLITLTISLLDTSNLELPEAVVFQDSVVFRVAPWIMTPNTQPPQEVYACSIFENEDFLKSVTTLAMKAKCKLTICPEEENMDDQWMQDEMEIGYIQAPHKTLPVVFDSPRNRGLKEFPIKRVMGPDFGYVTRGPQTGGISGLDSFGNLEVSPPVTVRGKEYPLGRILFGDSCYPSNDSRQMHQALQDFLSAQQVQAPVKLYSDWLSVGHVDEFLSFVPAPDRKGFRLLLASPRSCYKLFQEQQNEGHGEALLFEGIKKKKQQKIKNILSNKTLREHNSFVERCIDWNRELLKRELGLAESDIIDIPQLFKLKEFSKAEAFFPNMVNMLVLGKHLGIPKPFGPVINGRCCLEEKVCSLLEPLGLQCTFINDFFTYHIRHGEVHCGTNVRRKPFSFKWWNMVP
Outline: as §1

T1 sequence (Q9Y2J8 whole entry): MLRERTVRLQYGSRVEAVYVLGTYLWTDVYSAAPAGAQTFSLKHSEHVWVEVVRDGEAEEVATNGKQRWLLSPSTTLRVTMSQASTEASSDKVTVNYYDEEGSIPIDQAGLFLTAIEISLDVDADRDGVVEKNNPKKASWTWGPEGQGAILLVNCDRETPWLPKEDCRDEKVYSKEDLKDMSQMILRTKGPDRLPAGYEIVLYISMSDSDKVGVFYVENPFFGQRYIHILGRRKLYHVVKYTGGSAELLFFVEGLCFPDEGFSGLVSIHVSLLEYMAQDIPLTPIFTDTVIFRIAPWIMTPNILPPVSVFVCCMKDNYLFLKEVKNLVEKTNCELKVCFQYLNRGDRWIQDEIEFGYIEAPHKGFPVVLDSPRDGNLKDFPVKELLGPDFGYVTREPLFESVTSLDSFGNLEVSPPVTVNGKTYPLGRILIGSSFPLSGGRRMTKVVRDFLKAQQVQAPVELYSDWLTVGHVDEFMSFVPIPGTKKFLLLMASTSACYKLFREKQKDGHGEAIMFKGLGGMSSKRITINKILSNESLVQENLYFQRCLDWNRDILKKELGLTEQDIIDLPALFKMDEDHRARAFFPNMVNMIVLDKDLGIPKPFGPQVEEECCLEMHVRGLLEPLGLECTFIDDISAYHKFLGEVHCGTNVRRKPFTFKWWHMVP

Compound | kinact/KI (PAD2) | Fold PAD2 Selectivity (PAD2) | kinact/KI (PAD1) | Fold PAD1 Selectivity (PAD1) | kinact/KI (PAD3) | Fold PAD3 Selectivity (PAD3) | kinact/KI (PAD4) | Fold PAD4 Selectivity (PAD4) | Ki (PAD2) | kinact (PAD2)
N=C(CCl)NCCC[C@H](NC(=O)c1ccc2ccccc2c1)c1nc2ccccc2[nH]1 [Compound 5d] | 71.2 M⁻¹ s⁻¹ | 1.5 fold | 46.7 M⁻¹ s⁻¹ | 1.0 fold | 165 M⁻¹ s⁻¹ | 3.5 fold | 167 M⁻¹ s⁻¹ | 3.6 fold | – | –
N=C(CF)NCCC[C@H](NC(=O)c1ccc(-c2ccccc2)cc1)c1nc2ccccc2[nH]1 [Compound 5e, N1-[1,4′-Phenyl]benzol-N5-(2-fluoro-1-iminoethyl)-1-(1H-benzo[d]imidazol-2-yl)-L-ornithine] | 20 M⁻¹ s⁻¹ | 1.3 fold | 15 M⁻¹ s⁻¹ | 1.0 fold | 56.7 M⁻¹ s⁻¹ | 3.8 fold | 62.5 M⁻¹ s⁻¹ | 4.2 fold | – | –
CC(C)n1c([C@H](CCCNC(=N)CCl)NC(=O)c2ccccc2C(=O)O)nc2ccccc21 [Compound 6h, N1-(2-Carboxyl)benzoyl-N5-(2-chloro-1-iminoethyl)-1-(1-isopropyl-benzo[d]imidazol-2-yl)-L-ornithine] | 452 M⁻¹ s⁻¹ | 38 fold | 817 M⁻¹ s⁻¹ | 68 fold | 45 M⁻¹ s⁻¹ | 3.8 fold | 12 M⁻¹ s⁻¹ | 1.0 fold | – | –
N=C(CF)NCCC[C@H](NC(=O)c1cccc2c1C(=O)NC2)c1nc2ccccc2[nH]1 [Compound 7a, N1-(3-oxoisoindoline)benzol-N5-(2-fluoro-1-iminoethyl)-1-(1H-benzo[d]imidazol-2-yl)-L-ornithine] | 177 M⁻¹ s⁻¹ | 3.3 fold | 1290 M⁻¹ s⁻¹ | 24 fold | 53.3 M⁻¹ s⁻¹ | 1.0 fold | 552 M⁻¹ s⁻¹ | 10 fold | 210 µM | 0.0373 s⁻¹

Further lines, results first:

kinact/KI (PAD2) | Fold PAD2 Selectivity (PAD2) | kinact/KI (PAD1) | Fold PAD1 Selectivity (PAD1) | kinact/KI (PAD3) | Fold PAD3 Selectivity (PAD3) | kinact/KI (PAD4) | Fold PAD4 Selectivity (PAD4) | Ki (PAD2) | kinact (PAD2) | Compound
637 M⁻¹ s⁻¹ | 27 fold | 501 M⁻¹ s⁻¹ | 21 fold | 198 M⁻¹ s⁻¹ | 8.4 fold | 23.5 M⁻¹ s⁻¹ | 1.0 fold | – | – | CCN1Cc2cccc(C(=O)N[C@@H](CCCNC(=N)CCl)c3nc4cc(OC)ccc4n3CC)c2C1=O [Compound 8z, N1-(2-ethyl-3-oxoisoindoline)benzoyl-N5-(2-chloro-1-iminoethyl)-1-(5-methoxy-1-ethyl-benzo[d]imidazol-2-yl)-L-ornithine]
6090 M⁻¹ s⁻¹ | 85 fold | 1180 M⁻¹ s⁻¹ | 16 fold | 72 M⁻¹ s⁻¹ | 1.0 fold | 71.7 M⁻¹ s⁻¹ | 1.0 fold | 5.3 µM | 0.0323 s⁻¹ | CCN1Cc2cccc(C(=O)N[C@@H](CCCNC(=N)CF)c3nc4c(OC)cccc4n3C)c2C1=O [Compound 8k, N1-(2-ethyl-3-oxoisoindoline)benzoyl-N5-(2-fluoro-1-iminoethyl)-1-(4-methoxy-1-methyl-benzo[d]imidazol-2-yl)-L-ornithine]
119 M⁻¹ s⁻¹ | 11 fold | 56 M⁻¹ s⁻¹ | 4.9 fold | 80 M⁻¹ s⁻¹ | 7.1 fold | 11.3 M⁻¹ s⁻¹ | 1.0 fold | – | – | CC(C)n1c([C@H](CCCNC(=N)CCl)NC(=O)c2ccccc2C(=O)OC(C)(C)C)nc2ccccc21 [Compound 9f, N1-(2-tert-butylcarboxy)benzoyl-N5-(2-chloro-1-iminoethyl)-1-(1-isopropyl-benzo[d]imidazol-2-yl)-L-omithine]

Source: patent publication US11208386B2, “Inhibitors of protein arginine deiminases (PADs) and methods of preparation and use thereof” (University of Massachusetts, priority 2016, dated 2021)
